We go through four compounds from PMC5242521 (PLoS ONE, 2017).

For one series, the target named is T1, OCT1 (Homo sapiens, UniProt O15245).
T1 sequence (O15245 1-554): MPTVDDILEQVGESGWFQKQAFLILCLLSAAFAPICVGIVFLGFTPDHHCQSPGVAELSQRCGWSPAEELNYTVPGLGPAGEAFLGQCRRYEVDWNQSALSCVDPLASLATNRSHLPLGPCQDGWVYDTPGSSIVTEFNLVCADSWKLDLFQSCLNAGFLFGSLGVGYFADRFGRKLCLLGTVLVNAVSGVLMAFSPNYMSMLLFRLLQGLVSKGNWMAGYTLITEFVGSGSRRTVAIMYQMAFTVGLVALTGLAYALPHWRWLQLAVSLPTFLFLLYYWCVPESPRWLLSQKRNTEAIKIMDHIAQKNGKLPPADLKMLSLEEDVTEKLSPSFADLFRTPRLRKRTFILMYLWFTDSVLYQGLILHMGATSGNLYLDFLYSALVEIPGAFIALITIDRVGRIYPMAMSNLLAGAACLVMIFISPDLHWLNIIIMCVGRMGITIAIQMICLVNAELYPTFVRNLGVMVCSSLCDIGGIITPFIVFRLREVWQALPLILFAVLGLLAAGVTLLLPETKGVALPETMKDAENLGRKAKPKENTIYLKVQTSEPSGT
Nature of the series: OCT1 activity: DAPI accumulation in HEK-OCT1 cells. The settings on record: for inhibition at 100 μM: human, pH 7.4. As to the method: (§1) The effects of pyrethroids on activity of ABC and SLC transporters were determined through measuring cellular accumulation or retention of fluorescent or radiolabeled reference substrates for transporters, in the presence or absence of reference inhibitors, as previously described. The nature of cells and reference substrates and inhibitors used for transport assays are summarized in S3 Table.
The nature of substrates and reference inhibitors and the incubation times with substrates, that varied according to the transporter, were selected in agreement with previous studies and are indicated in S3 Table. The total incubation volume with substrates was 200 μL/well. […] An aliquot of cell lysate (5 μL) was then taken for determining cellular protein content by the Bradford method.
(§2) Intracellular concentrations of reference substrates were initially expressed as fluorescence arbitrary units (for fluorescent dye substrates) or as moles (for radiolabeled substrates) and normalized to cellular protein content, determined by the Bradford method. They were finally used for calculating percentage of transporter activity, according to the following equations [41, 45]: %ABCtransporter activity=([Substrateref inh]-[Substratepyrethroid])×100/([Substrateref inh]-[Substratecontrol]) (1) %SLC transporter activity=([Substratepyrethroid]-[Substratref inh])×100/([Substratecontrol]-[Substrateref inh]) (2) with [Substratepyrethroid] = cellular concentration of reference substrate in the presence of pyrethroid, [Substrateref inh] = cellular concentration of reference substrate in the presence of reference inhibitor and [Substratecontrol] = cellular concentration of reference substrate in control cells not exposed to pyrethroid or reference inhibitor.
(§3) The initial tested concentration of pyrethroids was 100 μM. […] Such concentrations were calculated using GraphPad Prism software (GraphPad Software, La Jolla, CA), through nonlinear regression based on the four parameter logistic function using the following equations: […]

Series [1] deals with P-gp (Homo sapiens, UniProt P08183). The series can be described thus: P-gp activity: rhodamine 123 accumulation in MCF7R cells. The settings on record: pyrethroid 100 μM. The protocol:
as §1
For accumulation assays (performed for all transporters, excepted BCRP), transporter-expressing cells usually cultured in 48-well plates were first incubated at 37°C with reference substrates in the absence (control) or presence of pyrethroids or reference inhibitors, in a well-defined transport assay medium, consisting of 136 mM NaCl, 5.3 mM KCl, 1.1mM KH2PO4, 0.8 mM MgSO4, 1.8 mM CaCl2, 10 mM HEPES, 11 mM D-glucose and adjusted to pH = 7.4 (excepted for MATE transporter assays, for which pH was set to 8.4). The nature of substrates and reference inhibitors and the incubation times with substrates, that varied according to the transporter, were selected in agreement with previous studies and are indicated in S3 Table. The total incubation volume with substrates was 200 μL/well. After washing twice in phosphate-buffered saline (PBS) (200 μL/well/washing), cells were lysed in distilled water (155 μL/well). An aliquot of cell lysate (5 μL) was then taken for determining cellular protein content by the Bradford method. The rest of lysate (150 μL/well) was used for measuring intracellular accumulation of reference substrates by scintillation counting or spectrofluorimetry using a SpectraMax Gemini SX spectrofluorometer (Molecular Devices, Sunnyvale, CA, USA) (excitation and emission wavelengths were 485 and 535 nm, respectively, for rhodamine 123 and fluorescein, and 355 and 460 nm, respectively, for DAPI).
as §2, §3

Series [2] has as its system P-gp. The settings on record: ref [78]; cited from earlier work.
Details of series [3]: method as in PMID 12708229. The following applies: human subjects environmentally exposed; ref [70]; cited from earlier work.
The subject of series [4] is P-gp. The following applies: ref [26], [27]; cited from earlier work.
The target in the next series is T2, OATP1B1 (Homo sapiens, UniProt Q9Y6L6).
T2 construct: expressed in transfected cells; host or cells: CHO
T2 sequence (Q9Y6L6 1-691): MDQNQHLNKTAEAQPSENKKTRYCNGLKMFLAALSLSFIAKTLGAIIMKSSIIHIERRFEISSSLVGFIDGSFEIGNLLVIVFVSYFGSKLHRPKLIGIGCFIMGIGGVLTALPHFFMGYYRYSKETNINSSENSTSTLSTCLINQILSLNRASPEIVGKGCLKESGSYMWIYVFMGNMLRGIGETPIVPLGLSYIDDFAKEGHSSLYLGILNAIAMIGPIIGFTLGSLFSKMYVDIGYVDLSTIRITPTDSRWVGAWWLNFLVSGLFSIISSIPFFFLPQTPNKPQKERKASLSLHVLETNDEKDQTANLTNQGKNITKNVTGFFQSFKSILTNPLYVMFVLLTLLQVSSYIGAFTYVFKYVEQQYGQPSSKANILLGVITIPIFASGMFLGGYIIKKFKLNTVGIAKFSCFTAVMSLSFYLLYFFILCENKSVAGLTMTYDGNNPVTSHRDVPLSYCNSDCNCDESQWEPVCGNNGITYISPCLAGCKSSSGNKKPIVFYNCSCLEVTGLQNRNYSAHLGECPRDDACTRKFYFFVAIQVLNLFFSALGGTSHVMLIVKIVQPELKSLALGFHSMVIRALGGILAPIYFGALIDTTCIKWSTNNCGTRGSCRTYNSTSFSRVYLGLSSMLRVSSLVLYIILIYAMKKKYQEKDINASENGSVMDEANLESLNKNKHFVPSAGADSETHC
Nature of the series: OATP1B1 activity: E3S accumulation in CHO-OATP1B1 cells. In kind it is cell-based. The settings on record: pyrethroid 100 μM; CHO-OATP1B1 cells, E3S. The protocol: (§4) The initial tested concentration of pyrethroids was 100 μM.

In the next series the target is T3, BCRP (Homo sapiens, UniProt Q9UNQ0).
T3 construct: expressed in transfected cells; host or cells: HEK293
T3 sequence (Q9UNQ0 1-655): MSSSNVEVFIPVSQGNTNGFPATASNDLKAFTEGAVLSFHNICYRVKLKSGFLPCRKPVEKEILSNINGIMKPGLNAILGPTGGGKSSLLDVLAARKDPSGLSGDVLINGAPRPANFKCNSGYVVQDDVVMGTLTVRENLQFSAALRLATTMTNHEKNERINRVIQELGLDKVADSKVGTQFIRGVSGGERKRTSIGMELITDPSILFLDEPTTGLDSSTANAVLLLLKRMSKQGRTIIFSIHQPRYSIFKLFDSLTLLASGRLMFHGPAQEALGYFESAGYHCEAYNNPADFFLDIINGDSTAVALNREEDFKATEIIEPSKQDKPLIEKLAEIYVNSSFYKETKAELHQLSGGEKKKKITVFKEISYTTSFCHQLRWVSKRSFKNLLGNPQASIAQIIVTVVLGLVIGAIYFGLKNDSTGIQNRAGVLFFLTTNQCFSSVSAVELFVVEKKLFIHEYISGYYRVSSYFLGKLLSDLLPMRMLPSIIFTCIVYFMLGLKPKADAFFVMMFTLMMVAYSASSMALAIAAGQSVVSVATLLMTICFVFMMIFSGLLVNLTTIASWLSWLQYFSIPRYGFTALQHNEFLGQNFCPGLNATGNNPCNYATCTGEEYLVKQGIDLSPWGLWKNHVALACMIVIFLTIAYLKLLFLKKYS
Nature of the series: BCRP activity: Hoechst 33342 retention in HEK-BCRP cells. In kind it is cell-based. The settings on record: pyrethroid 100 μM. As to the method:
For retention assay (used for BCRP activity), HEK-BCRP cells cultured in 48-well plates were first loaded at 37°C with transport assay (200 μL/well) containing 16.2 μM Hoechst 33342 for 30 min. After washing twice in PBS (200 μL/well/washing), cells were reincubated in Hoechst 33342-free transport assay medium (200 μL/well) at 37°C for 90 min in the absence or presence of pyrethroids or of the BCRP reference inhibitor fumitremorgin C used at 10 μM. Cells were next lysed in distilled water (155 μL/well) after washing twice in PBS (200 μL/well/washing). The cell lysate was finally used for determining cellular protein content and intracellular retention of Hoechst 33342 (by spectrofluorimetry: excitation and emission wavelengths were 355 and 460 nm, respectively), as described above.
as §4

Another series has as its system BCRP ATPase activity. The settings on record: ref [28]; cited from earlier work.

Values joined by “and” are separate entries in the source; they are usually repeats but may differ in a detail not shown here. Equal entries are not always repeated. “Also recorded” adds a separate entry of the source.

P-gp (Homo sapiens, UniProt P08183), sequence (P08183 whole entry): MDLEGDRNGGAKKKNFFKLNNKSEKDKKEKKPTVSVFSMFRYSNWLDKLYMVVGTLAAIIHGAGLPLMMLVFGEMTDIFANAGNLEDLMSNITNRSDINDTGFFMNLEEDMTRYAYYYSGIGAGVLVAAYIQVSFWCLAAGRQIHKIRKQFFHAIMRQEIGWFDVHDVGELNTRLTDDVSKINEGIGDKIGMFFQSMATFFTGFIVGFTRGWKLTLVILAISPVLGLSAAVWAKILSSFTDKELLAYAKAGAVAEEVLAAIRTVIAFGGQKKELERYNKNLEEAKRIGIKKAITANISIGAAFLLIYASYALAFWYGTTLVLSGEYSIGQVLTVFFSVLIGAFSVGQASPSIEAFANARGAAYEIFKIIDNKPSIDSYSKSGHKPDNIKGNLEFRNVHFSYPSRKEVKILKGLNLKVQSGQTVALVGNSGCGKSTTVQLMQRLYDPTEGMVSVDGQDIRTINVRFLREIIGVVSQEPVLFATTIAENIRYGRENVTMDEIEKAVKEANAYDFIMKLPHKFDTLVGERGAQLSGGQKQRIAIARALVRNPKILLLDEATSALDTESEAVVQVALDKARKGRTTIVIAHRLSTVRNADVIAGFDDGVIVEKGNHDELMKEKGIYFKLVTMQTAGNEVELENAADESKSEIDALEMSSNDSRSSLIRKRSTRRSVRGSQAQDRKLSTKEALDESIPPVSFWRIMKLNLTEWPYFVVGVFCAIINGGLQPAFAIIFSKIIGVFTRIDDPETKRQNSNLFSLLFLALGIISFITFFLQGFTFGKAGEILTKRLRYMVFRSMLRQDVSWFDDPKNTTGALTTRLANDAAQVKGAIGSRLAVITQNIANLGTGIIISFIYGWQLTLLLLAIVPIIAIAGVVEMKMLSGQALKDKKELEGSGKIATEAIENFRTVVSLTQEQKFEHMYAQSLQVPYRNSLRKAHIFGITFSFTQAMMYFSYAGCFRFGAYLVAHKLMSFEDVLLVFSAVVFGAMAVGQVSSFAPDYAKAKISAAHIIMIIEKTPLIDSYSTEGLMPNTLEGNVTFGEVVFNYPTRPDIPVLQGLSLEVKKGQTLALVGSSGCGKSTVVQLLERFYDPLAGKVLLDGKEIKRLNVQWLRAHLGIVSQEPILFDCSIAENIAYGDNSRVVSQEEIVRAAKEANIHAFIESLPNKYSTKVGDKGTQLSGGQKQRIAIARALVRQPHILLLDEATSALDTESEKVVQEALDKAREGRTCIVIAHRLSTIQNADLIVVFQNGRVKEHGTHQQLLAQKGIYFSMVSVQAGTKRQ

At OCT1, `CC1(C)[C@H](C(=O)O[C@H](C#N)c2cccc(Oc3ccccc3)c2)[C@@H]1C=C(Br)Br` [deltamethrin] returned an inhibition at 100 μM of 30.1 to 48.8%. The “effect on P-gp activity” value at P-gp [1] is on record as “did not inhibit”. For the same compound, the “efflux by P-gp” value in the series with P-gp [2] is given as “not effluxed by P-gp”. Besides, in series [3], the blood concentration is < 5 μg/L and < 12.8 nM.
As for `CC(C)[C@H](C(=O)O[C@H](C#N)c1cccc(Oc2ccccc2)c1)c1ccc(Cl)cc1` [esfenvalerate], the “effect on P-gp activity or ATPase activity” value in the series with P-gp [4] is reported as “inhibit”. At OATP1B1, the “inhibition of OATP1B1 activity” value is recorded as “less than 50%”. Further, on OCT1 (pyrethroid 100 μM, DAPI), the “effect on OCT1 activity” value was “failed to significantly alter”. For the same compound, the “effect on P-gp activity” value at P-gp [1] is “did not alter”.
In the case of `CC1(C)C(C=C(Cl)Cl)C1C(=O)OCc1cccc(Oc2ccccc2)c1` (stereo not shown) [permethrin], the “effect on BCRP activity” value on BCRP was “without inhibiting”. For the same compound, the “effect on P-gp activity or ATPase activity” value in the series on P-gp [4] was “inhibit”. The “effect on P-gp activity” value on P-gp [1] is “did not alter”. In addition, the “effect on BCRP ATPase activity” value in the series with BCRP ATPase activity is reported as “blocked; also recorded: inhibited”. Moreover, the blood concentration in series [3] is < 5 μg/L and < 12.8 nM.
With `CC(C)=CC1C(C(=O)OCc2coc(Cc3ccccc3)c2)C1(C)C` (stereo not shown) [resmethrin], on BCRP, the “effect on BCRP activity” value is given as “without inhibiting”. This compound also gave an inhibition at 100 μM against OCT1 of 48.8%. Besides, the “effect on BCRP ATPase activity” value in the series on BCRP ATPase activity is on record as “inhibited”.
